Assay results reported in the NIST ThermoML archive (doi:10.1021/je300382a).

How the values were obtained:
[1] = xn = mol fraction of the nth substance listed; conditions: Ring tensiometer
[2] = refractive index (Na D-line) (dimensionless); xn = mol fraction of the nth substance listed; conditions: 101 kPa, Liquid, Standard Abbe refractometry

CC(N)CN (stereo not given) [1,2-propanediamine] + O
Conditions	refractive index, 283.15 K	refractive index, 293.15 K	refractive index, 303.15 K	refractive index, 313.15 K	refractive index, 323.15 K	surface tension liquid-gas, 283.15 K [mN/m]	surface tension liquid-gas, 293.15 K [mN/m]	surface tension liquid-gas, 303.15 K [mN/m]	surface tension liquid-gas, 313.15 K [mN/m]	surface tension liquid-gas, 323.15 K [mN/m]
[1], x1 = 0.01	–	–	–	–	–	67.4	66.1	64.7	62.8	61
[1], x1 = 0.03	–	–	–	–	–	62.1	60.5	58.7	57.3	56
[1], x1 = 0.05	–	–	–	–	–	58.1	56.4	55	53.7	52.2
[1], x1 = 0.07	–	–	–	–	–	55	53.5	51.9	50.5	49.1
[1], x1 = 0.1	–	–	–	–	–	51.7	50.5	48.9	47.3	45.8
[1], x1 = 0.2	–	–	–	–	–	47.6	46.4	45	43.2	41.9
[1], x1 = 0.3	–	–	–	–	–	44.8	43.7	42.4	41	39.7
[1], x1 = 0.4	–	–	–	–	–	42.5	41.1	40.1	38.6	37.4
[1], x1 = 0.5	–	–	–	–	–	40.6	39.2	37.9	36.6	35.5
[1], x1 = 0.6	–	–	–	–	–	38.3	37.2	36.1	35.1	33.9
[1], x1 = 0.7	–	–	–	–	–	37.5	36.4	35.2	34.1	32.9
[1], x1 = 0.8	–	–	–	–	–	36.2	35.1	33.9	32.7	31.7
[1], x1 = 0.9	–	–	–	–	–	35.4	34.2	33	31.9	30.7
[1], x1 = 1	–	–	–	–	–	35	33.8	32.7	31.4	30.3
[2], x1 = 0.01	1.34	1.3392	1.3381	1.3366	1.3352	–	–	–	–	–
[2], x1 = 0.03	1.3522	1.3512	1.3499	1.3488	1.3478	–	–	–	–	–
[2], x1 = 0.05	1.3635	1.3621	1.3604	1.3592	1.3579	–	–	–	–	–
[2], x1 = 0.07	1.374	1.3723	1.3703	1.3685	1.3667	–	–	–	–	–
[2], x1 = 0.1	1.3882	1.3859	1.3835	1.3816	1.3797	–	–	–	–	–
[2], x1 = 0.2	1.4209	1.4173	1.4137	1.4111	1.4085	–	–	–	–	–
[2], x1 = 0.3	1.4356	1.4317	1.4273	1.4236	1.4208	–	–	–	–	–
[2], x1 = 0.4	1.4448	1.4405	1.4363	1.4321	1.4279	–	–	–	–	–
[2], x1 = 0.5	1.4486	1.4443	1.4401	1.4356	1.4311	–	–	–	–	–
[2], x1 = 0.6	1.4504	1.4459	1.4415	1.4369	1.4323	–	–	–	–	–
[2], x1 = 0.7	1.4511	1.4466	1.4418	1.4374	1.4325	–	–	–	–	–
[2], x1 = 0.8	1.4515	1.4468	1.442	1.4371	1.4323	–	–	–	–	–
[2], x1 = 0.9	1.4512	1.4465	1.4415	1.4368	1.4319	–	–	–	–	–
[2], x1 = 1	1.451	1.4458	1.4409	1.4362	1.4314	–	–	–	–	–

NCc1ccccc1 [benzylamine] + O
Conditions	refractive index, 283.15 K	refractive index, 293.15 K	refractive index, 303.15 K	refractive index, 313.15 K	refractive index, 323.15 K	surface tension liquid-gas, 283.15 K [mN/m]	surface tension liquid-gas, 293.15 K [mN/m]	surface tension liquid-gas, 303.15 K [mN/m]	surface tension liquid-gas, 313.15 K [mN/m]	surface tension liquid-gas, 323.15 K [mN/m]
[1], x1 = 0.0001	–	–	–	–	–	69.5	67.7	65.5	63.2	61.6
[1], x1 = 0.0005	–	–	–	–	–	60.4	58.1	56.1	54.3	52.3
[1], x1 = 0.001	–	–	–	–	–	54.9	53.1	50.6	48.8	47.2
[1], x1 = 0.003	–	–	–	–	–	48.6	46.1	44.3	42.6	40.1
[1], x1 = 0.006	–	–	–	–	–	42.1	40.7	39.2	37.7	36.4
[1], x1 = 0.01	–	–	–	–	–	41.4	40	38.6	37.5	36
[1], x1 = 0.03	–	–	–	–	–	39.5	38.4	37.5	36.3	35.6
[1], x1 = 0.05	–	–	–	–	–	39.3	38.3	37.5	36.3	35.5
[1], x1 = 0.07	–	–	–	–	–	38.9	38.1	37.3	36.2	35.5
[1], x1 = 0.1	–	–	–	–	–	38.7	38	37.2	36.2	35.4
[1], x1 = 0.2	–	–	–	–	–	38.6	37.8	37	36.1	35.4
[1], x1 = 0.3	–	–	–	–	–	38.4	37.5	36.9	35.9	35.2
[1], x1 = 0.4	–	–	–	–	–	38.4	37.5	36.9	35.9	35.2
[1], x1 = 0.5	–	–	–	–	–	38.3	37.6	36.8	35.9	35.2
[1], x1 = 0.6	–	–	–	–	–	38.2	37.4	36.6	35.7	35.2
[1], x1 = 0.7	–	–	–	–	–	38.1	37.3	36.5	35.8	35.1
[1], x1 = 0.8	–	–	–	–	–	38.1	37.3	36.5	35.8	35.1
[1], x1 = 0.9	–	–	–	–	–	38	37.2	36.4	35.7	35.1
[1], x1 = 1	–	–	–	–	–	37.9	37.1	36.3	35.6	35
[2], x1 = 0.0001	1.3338	1.3331	1.3321	1.331	1.3298	–	–	–	–	–
[2], x1 = 0.0005	1.3344	1.3337	1.3326	1.3312	1.3297	–	–	–	–	–
[2], x1 = 0.001	1.3351	1.3343	1.3333	1.3318	1.3303	–	–	–	–	–
[2], x1 = 0.003	1.3376	1.3368	1.3357	1.3342	1.3327	–	–	–	–	–
[2], x1 = 0.006	1.3411	1.3403	1.3392	1.3376	1.3361	–	–	–	–	–
[2], x1 = 0.01	1.3461	1.3449	1.3441	1.3423	1.3405	–	–	–	–	–
[2], x1 = 0.03	1.3683	1.367	1.3654	1.3634	1.3614	–	–	–	–	–
[2], x1 = 0.05	1.387	1.3853	1.3834	1.381	1.3787	–	–	–	–	–
[2], x1 = 0.07	1.4047	1.4007	1.3985	1.3961	1.3937	–	–	–	–	–
[2], x1 = 0.1	1.4252	1.4214	1.4183	1.4163	1.4136	–	–	–	–	–
[2], x1 = 0.2	1.468	1.4648	1.4614	1.4592	1.4569	–	–	–	–	–
[2], x1 = 0.3	1.4957	1.4918	1.4879	1.4848	1.4818	–	–	–	–	–
[2], x1 = 0.4	1.5143	1.5097	1.5057	1.5024	1.4985	–	–	–	–	–
[2], x1 = 0.5	1.5263	1.5218	1.5172	1.5129	1.5084	–	–	–	–	–
[2], x1 = 0.6	1.5343	1.5296	1.5252	1.5202	1.5159	–	–	–	–	–
[2], x1 = 0.7	1.5399	1.5355	1.5307	1.5259	1.5211	–	–	–	–	–
[2], x1 = 0.8	1.5447	1.5397	1.5344	1.5296	1.5247	–	–	–	–	–
[2], x1 = 0.9	1.5491	1.5429	1.5375	1.5319	1.527	–	–	–	–	–
[2], x1 = 1	1.5516	1.5445	1.5393	1.5328	1.5279	–	–	–	–	–
